Reference: patent US9771369B2, “Compounds and methods for kinase modulation, and indications therefor” (Plexxikon Inc., priority 2014, dated 2017)

What follows are compounds tested against c-Kit kinase (Homo sapiens (Human), UniProt P10721) (assay: c-Kit biochemical assay (AlphaScreen kinase activity)).
Outline: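 AlphaScreen: c-Kit phosphorylates biotin-(E4Y)3 (100 nM) at 10 μM ATP, pH 7.2 HEPES buffer with Mg/Mn, 5% DMSO, 1 h room temperature; streptavidin donor and PY30 acceptor beads detect product. Second format: 100 μM ATP, 30 nM biotin-(E4Y)10, pH 7.5. IC50 from 8-point 1:3 dilution curves.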

Sequence of c-Kit kinase (P10721 26-976): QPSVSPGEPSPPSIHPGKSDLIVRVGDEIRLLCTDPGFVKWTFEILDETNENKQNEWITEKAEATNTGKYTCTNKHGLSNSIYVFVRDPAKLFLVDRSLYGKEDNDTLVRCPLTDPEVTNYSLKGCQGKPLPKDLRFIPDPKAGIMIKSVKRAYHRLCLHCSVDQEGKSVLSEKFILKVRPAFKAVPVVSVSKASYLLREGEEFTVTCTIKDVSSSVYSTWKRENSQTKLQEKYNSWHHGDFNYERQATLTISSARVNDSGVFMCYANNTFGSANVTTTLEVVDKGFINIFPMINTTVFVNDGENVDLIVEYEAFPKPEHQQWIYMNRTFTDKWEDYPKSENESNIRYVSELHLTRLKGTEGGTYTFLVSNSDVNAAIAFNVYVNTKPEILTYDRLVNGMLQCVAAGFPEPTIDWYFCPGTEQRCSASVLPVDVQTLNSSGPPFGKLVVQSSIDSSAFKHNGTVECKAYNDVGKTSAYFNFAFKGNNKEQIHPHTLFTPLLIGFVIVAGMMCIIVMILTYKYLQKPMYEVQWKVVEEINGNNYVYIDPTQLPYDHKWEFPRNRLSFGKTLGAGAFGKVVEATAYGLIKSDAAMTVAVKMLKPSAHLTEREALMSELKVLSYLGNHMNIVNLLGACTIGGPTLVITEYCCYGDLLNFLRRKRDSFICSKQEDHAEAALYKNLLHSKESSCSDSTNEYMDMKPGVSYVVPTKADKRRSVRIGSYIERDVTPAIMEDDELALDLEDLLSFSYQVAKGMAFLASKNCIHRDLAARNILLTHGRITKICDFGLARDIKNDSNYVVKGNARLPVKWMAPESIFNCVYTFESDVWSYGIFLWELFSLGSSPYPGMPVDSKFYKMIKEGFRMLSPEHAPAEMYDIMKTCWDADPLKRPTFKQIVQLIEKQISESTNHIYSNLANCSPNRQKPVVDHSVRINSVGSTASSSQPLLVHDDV

Compound | IC50
Cc1nc(C2(C)CCN(c3ncnc4[nH]c(-c5ccc(C#N)cc5)cc34)CC2)[nH]c1-c1ccc2c(c1)OCO2 [P-3159, 4-[4-[4-[5-(1,3-benzodioxol-5-yl)-4-methyl-1H-imidazol-2-yl]-4-methyl-1-piperidyl]-7H-pyrrolo[2,3-d]pyrimidin-6-yl]benzonitrile] | 0.0001 to 1 µM
CCOc1ccc(-c2[nH]c(C3(C)CCN(c4ncnc5[nH]c(-c6ccc(C#N)cc6)cc45)CC3)nc2C)cc1C [P-3160, 4-[4-[4-[5-(4-ethoxy-3-methyl-phenyl)-4-methyl-1H-imidazol-2-yl]-4-methyl-1-piperidyl]-7H-pyrrolo[2,3-d]pyrimidin-6-yl]benzonitrile] | 0.0001 to 1 µM
CCOc1ccc(-c2[nH]c(C3(C)CCN(c4ncnc5[nH]c(-c6ccc(C#N)cc6)cc45)CC3)nc2C)cc1 [P-3161, 4-[4-[4-[5-(4-ethoxyphenyl)-4-methyl-1H-imidazol-2-yl]-4-methyl-1-piperidyl]-7H-pyrrolo[2,3-d]pyrimidin-6-yl]benzonitrile] | 0.0001 to 1 µM
Cc1nc(C2CCN(c3ncnc4[nH]c(-c5ccc(C#N)cc5)cc34)CC2)[nH]c1-c1ccc(C(F)F)cc1 [P-3162, 4-[4-[4-[5-[4-(difluoromethyl)phenyl]-4-methyl-1H-imidazol-2-yl]-1-piperidyl]-7H-pyrrolo[2,3-d]pyrimidin-6-yl]benzonitrile] | 1 to 10 µM
COc1ccc(-c2[nH]c(C3(C)CCN(c4ncnc5[nH]c(-c6ccc(C#N)cc6)cc45)CC3)nc2C)cc1F [P-3163, 4-[4-[4-[5-(3-fluoro-4-methoxy-phenyl)-4-methyl-1H-imidazol-2-yl]-4-methyl-1-piperidyl]-7H-pyrrolo[2,3-d]pyrimidin-6-yl]benzonitrile] | 0.0001 to 1 µM
Cc1nc(C2(C)CCN(c3ncnc4[nH]c(-c5ccc(C#N)cc5)cc34)CC2)[nH]c1-c1ccc(C(F)F)cc1 [P-3164, 4-[4-[4-[5-[4-(difluoromethyl)phenyl]-4-methyl-1H-imidazol-2-yl]-4-methyl-1-piperidyl]-7H-pyrrolo[2,3-d]pyrimidin-6-yl]benzonitrile] | 0.0001 to 1 µM
Cc1cc2c(N3CCC(C)(c4nc(C)c(-c5ccc(C(F)(F)F)cc5)[nH]4)CC3)ncnc2[nH]1 [P-3165, 6-methyl-4-[4-methyl-4-[4-methyl-5-[4-(trifluoromethyl)phenyl]-1H-imidazol-2-yl]-1-piperidyl]-7H-pyrrolo[2,3-d]pyrimidine] | 1 to 10 µM
COc1cccc(-c2[nH]c(C3(C)CCN(c4ncnc5[nH]c(C)cc45)CC3)nc2C)c1 [P-3166, 4-[4-[5-(3-methoxyphenyl)-4-methyl-1H-imidazol-2-yl]-4-methyl-1-piperidyl]-6-methyl-7H-pyrrolo[2,3-d]pyrimidine] | 1 to 10 µM
COc1cccc(-c2[nH]c(C3(C)CCN(c4ncnc5[nH]c(-c6ccc(C#N)cc6)cc45)CC3)nc2C)c1 [P-3167, 4-[4-[4-[5-(3-methoxyphenyl)-4-methyl-1H-imidazol-2-yl]-4-methyl-1-piperidyl]-7H-pyrrolo[2,3-d]pyrimidin-6-yl]benzonitrile] | 0.0001 to 1 µM
COc1cccc(-c2[nH]c(C3(C)CCN(c4ncnc5[nH]c(-c6cnn(C(F)F)c6)cc45)CC3)nc2C)c1 [P-3168, 6-[1-(difluoromethyl)pyrazol-4-yl]-4-[4-[5-(3-methoxyphenyl)-4-methyl-1H-imidazol-2-yl]-4-methyl-1-piperidyl]-7H-pyrrolo[2,3-d]pyrimidine] | 0.0001 to 1 µM
COc1cccc(-c2[nH]c(C3(C)CCN(c4ncnc5[nH]c(-c6ccc(OC)nc6)cc45)CC3)nc2C)c1 [P-3169, 4-[4-[5-(3-methoxyphenyl)-4-methyl-1H-imidazol-2-yl]-4-methyl-1-piperidyl]-6-(6-methoxy-3-pyridyl)-7H-pyrrolo[2,3-d]pyrimidine] | 0.0001 to 1 µM
CCOc1ccc(-c2[nH]c(C3(C)CCN(c4ncnc5[nH]c(-c6cnn(C(F)F)c6)cc45)CC3)nc2C)cc1 [P-3170, 6-[1-(difluoromethyl)pyrazol-4-yl]-4-[4-[5-(4-ethoxyphenyl)-4-methyl-1H-imidazol-2-yl]-4-methyl-1-piperidyl]-7H-pyrrolo[2,3-d]pyrimidine] | 0.0001 to 1 µM
Fc1ccc(-c2cc3c(N4CCC(c5nnc(-c6cccc(OC(F)F)c6)[nH]5)CC4)ncnc3[nH]2)cc1 [P-3204, 4-[4-[5-[3-(difluoromethoxy)phenyl]-4H-1,2,4-triazol-3-yl]-1-piperidyl]-6-(4-fluorophenyl)-7H-pyrrolo[2,3-d]pyrimidine] | 10 to 300 µM
COc1cc(-c2cc3c(N4CCC(c5nnc(-c6ccc(F)cc6)[nH]5)CC4)ncnc3[nH]2)ccn1 [P-3205, 4-[4-[5-(4-fluorophenyl)-4H-1,2,4-triazol-3-yl]-1-piperidyl]-6-(2-methoxy-4-pyridyl)-7H-pyrrolo[2,3-d]pyrimidine] | 10 to 300 µM
